Test [1] has as its target T1, RXRγ (UniProt P28705).
T1 sequence (P28705 1-463): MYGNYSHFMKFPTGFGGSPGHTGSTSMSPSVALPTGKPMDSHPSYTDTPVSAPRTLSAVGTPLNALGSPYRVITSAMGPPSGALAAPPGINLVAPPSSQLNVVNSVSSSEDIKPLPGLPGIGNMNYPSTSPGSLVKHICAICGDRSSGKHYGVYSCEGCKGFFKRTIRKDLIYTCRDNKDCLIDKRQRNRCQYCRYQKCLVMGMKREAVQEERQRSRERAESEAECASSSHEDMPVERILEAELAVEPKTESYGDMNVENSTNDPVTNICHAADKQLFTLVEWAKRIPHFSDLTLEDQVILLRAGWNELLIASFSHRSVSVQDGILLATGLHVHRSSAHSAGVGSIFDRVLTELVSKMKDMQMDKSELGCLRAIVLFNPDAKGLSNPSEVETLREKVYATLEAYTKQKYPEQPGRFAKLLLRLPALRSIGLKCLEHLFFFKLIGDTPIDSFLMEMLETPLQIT
Kind of test: holoreceptor transactivation assay, RXRγ. Format: cell-based. The note with it: for EC50: holoreceptor transactivation, read-out: RXR Trans. EC50 γ; for RXR Trans. efficacy (number in parentheses) γ: percentage compared to the standard compound. An excerpt: Specifically, one such assay is a chimeric receptor transactivation assay which tests for agonist-like activity in the R RAPE and RAR7 receptor subtypes, and which is based on work published by Feigner, P. L. and Holm, M (1989) Focus, 112 is described in detail in U.S. Pat. No. 5,455,265. The specification of U.S. Pat. No. 5,455,265 is hereby expressly incorporated by reference. A holoreceptor transactivation assay and a ligand binding assay which measure the antagonist/agonist like activity of the compounds of the invention, or their ability to bind to the several retinoid receptor subtypes, respectively, are described in published PCT Application No. WO WO93/11755 (particularly on pages 30-33 and 37-41) published on Jun. 24, 1993, the specification of which is also incorporated herein by reference. A detailed experimental procedure for holoreceptor transactivations has been described by Heyman et al. Cell 68, 397-406, (1992); Allegretto et al. J. Biol. Chem. 268, 26625-26633, and Mangelsdorf et al. The Retinoids: Biology, Chemistry and Medicine, pp 319-349, Raven Press Ltd., New York, which are expressly incorporated herein by reference. The results obtained in this assay are expressed in EC50 numbers, as they are also in the chimeric receptor transactivation assay. The results of the ligand binding assay are expressed in Ki numbers. (See Cheng et al. Biochemical Pharmacology Vol. 22 pp 3099-3108, expressly incorporated herein by reference.)
Efficacy in a transactivation assay is expressed as a percentage of the maximum potency attained by the compound compared to a standard which, in this case, is the compound named (2E,4E,1′S,2′S)-3-methyl-5-[2′-methyl-2′-(5,5,8,8-tetramethyl-5,6,7,8-tetrahydro-naphthalen-2-yl)-cyclopropyl]-penta-2,4-dienoic acid. This standard compound is described in U.S. Pat. No. 6,114,533.
The specification of this application for patent is organized in several sections in accordance with structural Formulas A through F each of which discloses a group of preferred compounds within the scope of the invention. Tables that disclose the activity of certain exemplary compounds of the invention in the above-described RXR receptor transactivation and binding assays are found in the corresponding sections. […] The transactivation data pertaining to the activation of RXR receptors were obtained in the holoreceptor assay.
Generally speaking, in the tables disclosing the results of transactivation and binding assays the numbers in parentheses indicate efficacy as a percentage compared to the standard compound, (2E,4E,1′S,2′S)-3-methyl-5-[2′-methyl-2′-(5,5,8,8-tetramethyl-5,6,7,8-tetrahydro-naphthalen-2-yl)cyclopropyl]-penta-2,4-dienoic acid and the other numbers indicate the measured EC50 and K; in nanomolar concentration.

The target in test [2] is T2, RXRα (Homo sapiens, UniProt P19793).
T2 construct: expressed in transfected cells
T2 sequence (P19793 1-462): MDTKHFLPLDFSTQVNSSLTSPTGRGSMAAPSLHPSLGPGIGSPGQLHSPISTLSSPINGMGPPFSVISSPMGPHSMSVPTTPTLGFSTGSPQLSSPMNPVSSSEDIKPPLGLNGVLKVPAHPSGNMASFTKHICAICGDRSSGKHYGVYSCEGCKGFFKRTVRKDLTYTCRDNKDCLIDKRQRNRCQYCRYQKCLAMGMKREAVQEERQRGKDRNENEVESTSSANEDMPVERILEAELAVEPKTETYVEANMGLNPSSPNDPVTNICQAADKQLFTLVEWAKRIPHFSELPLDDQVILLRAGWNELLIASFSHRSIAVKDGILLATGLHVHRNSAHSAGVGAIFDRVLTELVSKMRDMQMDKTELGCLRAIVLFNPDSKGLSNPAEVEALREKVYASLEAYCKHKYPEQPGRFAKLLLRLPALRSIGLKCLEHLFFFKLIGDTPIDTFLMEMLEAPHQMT
Kind of test: holoreceptor transactivation assay, RXRα. The settings on record: for EC50: holoreceptor transactivation, read-out: RXR Trans. EC50 α; for Emax: percentage compared to the standard compound, read-out: RXR Trans. efficacy (number in parentheses) α. Format: cell-based. A digest of the protocol: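 Cells carrying either full-length RXR (holoreceptor) or chimeric RAR receptors were exposed to compound and reporter transactivation recorded. Potency was expressed as EC50 in nanomolar. Efficacy was expressed as percent of the maximal response of a reference cyclopropyl-tetramethyltetrahydronaphthalene penta-2,4-dienoic acid.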

The target of test [3] is T2, RXRα. Kind of test: ligand binding assay, RXRα. The settings on record: for Ki: read-out: RXR Bind Ki α. A digest of the protocol: (§1)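 Binding of compounds to several retinoid receptor subtypes was measured. Results are given as Ki values in nanomolar concentration, derived per Cheng et al.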
Test [4] addresses T3, RARα (Homo sapiens, UniProt P10276).
T3 sequence (P10276 1-462): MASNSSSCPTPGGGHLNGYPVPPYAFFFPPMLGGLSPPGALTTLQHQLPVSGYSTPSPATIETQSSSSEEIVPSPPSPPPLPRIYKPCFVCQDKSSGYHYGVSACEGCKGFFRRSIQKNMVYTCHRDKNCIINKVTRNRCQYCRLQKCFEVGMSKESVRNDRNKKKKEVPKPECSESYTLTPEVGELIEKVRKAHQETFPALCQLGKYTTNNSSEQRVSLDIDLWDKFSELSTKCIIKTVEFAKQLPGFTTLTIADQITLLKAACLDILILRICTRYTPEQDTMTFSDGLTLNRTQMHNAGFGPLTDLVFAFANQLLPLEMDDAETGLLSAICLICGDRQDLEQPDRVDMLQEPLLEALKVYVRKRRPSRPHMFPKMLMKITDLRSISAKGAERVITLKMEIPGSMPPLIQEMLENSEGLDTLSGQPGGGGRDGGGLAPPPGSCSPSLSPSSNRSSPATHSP
The test is described as follows: ligand binding assay, RARα. The settings on record: for Ki: read-out: RAR Bind. Ki α. A digest of the protocol: as §1

In general, EC50 refers to the concentration giving half of the maximal effect. What is called Ki is the equilibrium dissociation constant of an inhibitor or competing ligand from its target. For the compound `CCOc1c(\C(C)=C/C=C/C(C)=C/C(=O)O)cc2c(c1Cl)OC(C)(C)C=C2C(C)C` [Compound 50, 7-(8-Chloro-4-isopropyl-7-ethoxy-2,2-dimethyl-2H-chromen-6-yl)-3-methyl-octa-2E,4E,6Z-trienoic acid], in test [1], the EC50 is 5 nM and the “RXR Trans. efficacy (number in parentheses) γ” value (from here on “RXR Trans. efficacy”) is reported as 47%. In test [2], the EC50 stood at 2 nM and the Emax is 56%. For the same compound, the inhibition constant (Ki) in test [3] was determined as 4 nM. Besides, the Ki in test [4] stood at 738 nM.

Consider `CC(/C=C/C(F)=C(/C)c1cc2c(c(Cl)c1OC(C)C)OC(C)(C)C=C2C(C)C)=C\C(=O)O` [Compound 174], for which the EC50 in test [1] was 114 nM; in test [2] it was 59 nM. Besides, in test [1], the “RXR Trans. efficacy” value was 6%. The Emax in test [2] was 8%. In addition, the values for the Ki in test [3] and in test [4] were 29 nM and 532 nM, respectively.

`CCOc1cc2c(cc1\C(CC)=C(F)/C=C/C(C)=C/C(=O)O)C(C)=CC(C)(C)O2` [Compound 132, 7-(7-Ethoxy-2,2,4-trimethyl-2H-chromen-6-yl)-6-fluoro-3-methyl-nona-2E,4E,6E-trienoic acid]: the EC50 in test [1] was > 1000 nM; in test [2], 759 nM. In addition, in test [2], the Emax came to 15%. The values for the inhibition constant Ki in test [3] and in test [4] were 124 nM and 148 nM, respectively.

In the case of `CCOc1cc2c(cc1\C(C)=C(F)/C=C/C(C)=C/C(=O)O)C(C(C)(C)C)=CCC2(C)C` [Compound A-82, (2E,4E,6E)-6-Fluoro-3-(4,4-dimethyl-6-ethoxy-1-tert-butyl-3,4 dihydronaphthalen-7-yl)-3-methyl-2,4,6-octa-trienoic acid], in test [1], the EC50 turned out to be 2 nM and the “RXR Trans. efficacy” value is given as 31%. For the same compound, in test [2], the EC50 turned out to be 1 nM and the Emax is 43%. Also, in test [3], the Ki turned out to be 2 nM. Also, in test [4], the inhibition constant Ki worked out at 387 nM.

Take `CCC1=CC(C)(C)Oc2cc(OC)c(\C(C)=C(F)/C=C/C(C)=C/C(=O)O)cc21` [Compound 120, 7-(4Ethyl-7-methoxy-2,2-dimethyl-2H-chromen-6-yl)-6-fluoro-3-methyl-octa-2E,4E,6E-trienoic acid]: the concentration for a half-maximal effect (EC50) in test [1] and in test [2] was > 10000 nM throughout. Besides, the inhibition constant Ki stood at 277 nM in test [3] and 4100 nM in test [4].

Turning to `CCOc1cc2c(cc1\C(CC)=C(F)/C=C/C(C)=C/C(=O)O)C(C(C)(C)C)=CCC2(C)C` [Compound A-83, (2E,4E,6E)-7-(8-tert-Butyl-3-ethoxy-5,5-dimethyl-5,6-dihydronaphthalen-2-yl)-6-fluoro-3-methyl-nona-2,4,6-trienoic acid], the half-maximal effective concentration (EC50) in test [1] and in test [2] was 2 nM throughout. For the same compound, the “RXR Trans. efficacy” value in test [1] was 7%. The Emax in test [2] turned out to be 13%. Also, the inhibitory constant (Ki) was found to be 2 nM in test [3] and 394 nM in test [4].

By Kd is commonly meant the free concentration of one partner at which half of the binding sites on the other are occupied at equilibrium, for simple one-to-one binding. Turning to `CC(/C=C/C(F)=C(/C)c1cc2c(c(Br)c1OC(C)C)C(C)(C)CC=C2C(C)C)=C\C(=O)O` [Compound A-172, (2E,4E,6E)-7-(4-Bromo-3-isopropoxy-8-isopropyl-5,5-dimethyl-5,6-dihydro-naphthalen-2-yl)-6-fluoro-3-methyl-octa-2,4,6-trienoic acid], in test [1], the EC50 amounted to 18 nM and the “RXR Trans. efficacy” value was determined as 12%. In test [2], the 50% effective concentration (EC50) stood at 19 nM and the Emax was 31%. In test [3] (Table 9 (Formula F), read-out: RXR α Kd), the Kd is 8 nM. For the same compound, the Kd in test [4] (Table 9 (Formula F), read-out: RAR α Kd) is 141 nM.

On to `CCOc1cc2c(cc1\C(C)=C(F)/C=C/C(C)=C/C(=O)O)C=CCC2(C)C` [Compound A-76, (2E,4E,6E)-7-(3-Ethoxy-5,5-dimethyl-5,6-dihydro-naphthalen-2-yl)-6-fluoro-3-methyl-octa-2,4.6-trienoic acid], for which, in test [1], the EC50 came out at 51 nM and the “RXR Trans. efficacy” value worked out at 109%. Further, in test [2], the half-maximal effective concentration (EC50) stood at 50 nM and the Emax turned out to be 104%. Further, in test [3], the Ki turned out to be 35 nM. Also, the Ki in test [4] stood at 1600 nM.

With `CC/C(=C(F)/C=C/C(C)=C/C(=O)O)c1cc2c(cc1OC)OC(C)(C)C=C2C(C)(C)C` [Compound 131, 7-(4-tert-Butyl-7-methoxy-2,2-dimethyl-2H-chromen-6-yl)-6-fluoro-3-methyl-nona-2E,4E,6E-trienoic acid], in test [1], the EC50 amounted to 8 nM and the “RXR Trans. efficacy” value is 53%. In addition, in test [2], the EC50 turned out to be 6 nM and the Emax was 37%. Also, the Ki in test [3] came to 10 nM. For the same compound, the inhibition constant (Ki) in test [4] was found to be 837 nM.

For `CCOc1cc2c(cc1\C(CC)=C(F)/C=C/C(C)=C/C(=O)O)C=CCC2(C)C` [Compound A-77], the EC50 in test [1] and in test [2] was 41 nM each time. Moreover, the “RXR Trans. efficacy” value in test [1] is given as “(73) %”. Further, the Emax in test [2] was 69%. Also, the figures for the inhibitory constant (Ki) in test [3] and in test [4] were 6 nM and 301 nM, respectively.

Turning to `CCOc1cc2c(cc1\C(=C/C=C/C(C)=C/C(=O)O)CC)C(C)=CC(C)(C)O2` [Compound 46, 7-(7-Ethoxy-2,2,4-trimethyl-2H-chromen-6-yl)-3-methyl-nona-2E,4E,6Z-trienoic acid], the EC50 in test [1] and in test [2] was > 1000 nM in each case. The figures for the inhibitory constant (Ki) in test [3] and in test [4] were 199 nM and 623 nM, respectively.

(Values after US6887896B1, “7-[(7-Alkoxy)-chrom-3-en-6-yl]-heptatrienoic acid and 7-[(3-alkoxy)-5,6-dihydronaphthalen-2-yl]-heptatrienoic acid derivatives having serum glucose reducing activity” (Allergan, Inc., priority 2003, dated 2005).)
